Reference: patent US10081648B2, “Lipid-based platinum compounds and nanoparticles” (AKAMARA THERAPEUTICS, INC., priority 2013, dated 2018)

What was measured:
[1] = tested on: MDA-MB-231, SKOV-3, HeLa, SW-620 and HCT-116 cell lines; experiment: MTT cell viability assay, 72 h; assay type: cell-based, human; conditions: for inhibition of cell viability: 0-25 μM concentration range, dose-response relationship; for IC50 compared with oxaliplatin: human cancer cell lines
Method: FIGS. 7A-7F show MTT assay results for some exemplary compounds disclosed herein. Graphical representation of MTT assay for the activity of exemplary compounds examined on various human cancer cell lines. […] The IC50 values of compound/oxaliplatin tested in cell-lines are mentioned alongside, in corresponding colors as the cell viability curve.
Cell culture: Mammalian cells were grown in specific culture media, supplemented with 10% fetal bovine serum (FBS) and antibiotics in a humidified environment containing 5% CO2 at 37° C.
Cell viability assay: The effects of supramolecular platinum conjugates on the viability of cancer cells were measured using MTT assay. Cells in 100 μl culture-media were plated in 96-well plates (3000-5000 cells/well) and allowed to adhere overnight in a humidified environment containing 5% CO2 at 37° C. Fresh media (100 μL) containing different concentrations of compounds were added to cells and incubated for 72 hours. Following incubation, cell viability was determined using the MTT assay. The MTT assay measures cell viability through assessment of active mitochondrial dehydrogenase, which converts MTT into water-insoluble purple formazan crystals. Cell viability was plotted as dose-response curves using curve fitting.
The effects of exemplary compounds (compound 25, 26, 27, 28, 31, 48) were evaluated in vitro in comparison with oxaliplatin in breast cancer (MDA-MB-231), ovarian cancer (SKOV-3), cervical cancer (HeLa) and colorectal cancer (SW-620 and HCT-116) cell lines.

MDA-MB-231 cells = experiment: Cellular uptake of platinum compounds (AAS); assay type: cell-based; conditions: 50 μM platinum equivalent, 5 hrs
Method: Cells were incubated with 50 μM concentration of platinum compounds for 5 hours. The amount of platinum accumulated in cells was measured by AAS and expressed as ng of platinum accumulated per 10^5 cells.
Cellular uptake of platinum compounds: MDA-MB-231 cells (1×10^6) were seeded in 2 ml media per well of a 6-well plate and grown for 24 hrs. Required volume of compounds was added to achieve a final concentration of 50 μM platinum equivalent per well. Cells were incubated for 5 hrs after adding the compounds, then washed twice with PBS, harvested by trypsinization, resuspended in PBS and counted. Cells were centrifuged and pellets stored at −80° C. until further processing. The cell pellets were digested with 100 μl nitric acid at 70° C. for 4 hours. Following digestion, the samples were diluted in 2% HCl and the quantity of accumulated platinum was determined using Atomic absorption spectroscopy (AAS). The assay was validated using a linear standard curve, generated from serial dilutions of certified stock platinum standard and cellular uptake of platinum was expressed as ng of platinum per 1×10^5 cells.

| SMILES | inhibition of cell viability [1] | IC50 compared with oxaliplatin [1] | cellular uptake of platinum (MDA-MB-231 cells) |
| --- | --- | --- | --- |
| CC(C)CCC[C@@H](C)[C@H]1CCC2C3CC=C4C[C@@H](OCC[N+]5(CC(=O)[O-])CC(=O)[O][Pt]56[NH][C@@H]5CCCC[C@H]5[NH]6)CC[C@]4(C)C3CC[C@@]21C (some centres unmarked) [Compound 25] | significant inhibition of cell viability | lower than oxaliplatin |  |
| CC(C)CCC[C@@H](C)[C@H]1CC[C@H]2[C@@H]3CC=C4C[C@@H](OC(=O)NCC[N+]5(CC(=O)[O-])CC(=O)[O][Pt]56[NH][C@@H]5CCCC[C@H]5[NH]6)CC[C@]4(C)[C@H]3CC[C@]12C (some centres unmarked) [Compound 26] | significant inhibition of cell viability | lower than oxaliplatin |  |
| CC(C)CCC[C@@H](C)[C@H]1CC[C@H]2[C@@H]3CC=C4C[C@@H](OCCNC(=O)C[N+]5(CC(=O)[O-])CC(=O)[O][Pt]56[NH][C@@H]5CCCC[C@H]5[NH]6)CC[C@]4(C)[C@H]3CC[C@]12C (some centres unmarked) [Compound 27] | significant inhibition of cell viability | lower than oxaliplatin |  |
| CC(C)CCC[C@@H](C)[C@H]1CC[C@H]2[C@@H]3CC=C4C[C@@H](OCCOCC[N+]5(CC(=O)[O-])CC(=O)[O][Pt]56[NH][C@@H]5CCCC[C@H]5[NH]6)CC[C@]4(C)[C@H]3CC[C@]12C (some centres unmarked) [Compound 28] | significant inhibition of cell viability | lower than oxaliplatin |  |
| CC(C)CCC[C@@H](C)[C@H]1CC[C@H]2[C@@H]3CC=C4C[C@@H](OCCCC5=CC(=O)[O][Pt]6([NH][C@@H]7CCCC[C@H]7[NH]6)[O]5)CC[C@]4(C)[C@H]3CC[C@]12C [Compound 31] | significant inhibition of cell viability | lower than oxaliplatin |  |
| O=C1[O][Pt]2([NH][C@@H]3CCCC[C@H]3[NH]2)[O]C1=O [oxaliplatin] |  |  | similar |
